{
  "source": "patent US9862713B2",
  "about": "“Substituted bicyclic heteroaryl compounds as RXR agonists” (CONNEXIOS LIFE SCIENCES PVT. LTD., priority 2014, dated 2018)",
  "key": {"male ZDF rats": {"test_system": "male ZDF rats", "assay": "Effect of RXR agonist on male ZDF rats", "format": "in vivo", "conditions": "10 mg/kg, BID, po", "description": "Five week old male ZDF rats from Charles River & age matched control rats were housed under temperature 22±3° C., relative humidity 50-70%, 12 hour light and 12 hour dark cycle with artificial fluorescent tubes. The animals were housed in a group of 3 in standard polypropylene cages with stainless steel top grill having facilities for pelleted food and drinking water in bottle. The animals were fed with normal chow diet (Provomi), Bisleri, commercially available mineral drinking water was provided ad libitum. The lean control and the male […] rats were randomized to either vehicle or drug (Compound 40, 10 mg/kg, BID, po) treatment groups by body weight, fed glucose and glucose. The treatment was continued for 8 weeks. Body weight, fasting and fed glucose and fast triglycerides (tail snip) were monitored weekly. At the end of week 8 of the treatment, glucose and insulin HbAlc levels were followed at different time intervals. Blood samples collected from tail nipping method HbAlc levels by DCA vantage (SIEMENS).\nMeasurement of Nerve conduction velocity: Nerve conduction velocity was measured using Electronic stimulator connected to AD Power Lab 8/30, AD instruments. Briefly animals were anaesthetized and three different electrodes (+ve, −ve and neutral) were connected from Bio amp to animal. +ve electrode was placed on front side of fourth finger on hind paw, −ve electrode was placed just above +ve electrode at a distance of 10 mm and neutral electrode was placed on abdomen region. Voltage at a rate of 5 mv with pulse width of 0.001 sec was provided on two different regions at a distance of 1 cm on sciatic nerve. Nerve conduction was recorded using Lab chart software in scope view panel. Latencies at two different points were measured by taking the mouse cursor at the beginning of peaks. […] Measurement of Hemodynamic Parameters by Using Millar MPVS System:\nAt the end of 22 weeks of treatment period animal were subjected to hemodynamic measurement using Millar MPVS system, briefly animal was anesthetized using urethane and all surgical procedure was done on thermal plate, both jugular vein and carotid artery was cannulated in which jugular vein was used for saline calibration whereas rat millar Cather was introduced into left ventricle through carotid artery was be used for recording the Pressure volume loop. Blood was withdrawn from the tail vein puncture by pricking with needle into pre-filled EDTA tubes, mix and placed on ice immediately, centrifuge at 10000 rpm for 10 minutes using cold centrifuge. The plasma separated was subjected for estimation of ANP, BNP, Osteprotegerin Using USCN kit and Serum urea and BUN using Robonik kit."}, "Male Wistar rats": {"test_system": "Male Wistar rats", "assay": "Isoprenaline induced cardiac hypertrophy in rats", "format": "in vivo", "conditions": "10 mg/kg, p.o., q.d., 11 weeks", "description": "Male Wistar rats of fourteen weeks age were housed under controlled temperature 22±3° C., relative humidity 50-70%, 12 hour light and 12 hour dark cycle with artificial fluorescent tubes. Animals were acclimatized for seven days. On eight day animals were randomized based on their body weights and allotted into nine animals/group. Different groups into which animals allotted were G1: Vehicle control, G2: Isoprenaline control (5 mg/kg, s.c. twice a week) and G3: Isoprenaline (5 mg/kg, s.c. twice a week)+Compound 40 (10 mg/kg, p.o., q.d.). Treatment with Compound 40 (10 mpk) for G3 group was started one week prior to isoprenaline administration and both the treatments were continued for eleven weeks. The animals were monitored for daily feed consumption and weekly body weight throughout the study. At the end of treatment period (Week 11) five animals from each group were subjected to Cardiovascular hemodynamic assessment by Millar catheter using MPVS Ultra control interface connected to AD power lab, AD instruments. Different parameters measured were heart rate, stroke work, stroke volume, cardiac output, left ventricular systolic pressure, left ventricular diastolic pressure, left ventricular diastolic volume Immediately after hemodynamic estimation terminal blood from all the animals were collected followed by the collection of hearts. All the separated serum samples were used for estimation of several cardiac markers like ANP, BNP, CRP, LDH, CKN, CKMB and SGOT. Collected hearts were examined for histopathological changes and gene expression studies. All the numerical output was expressed as Mean±SEM, one way ANOVA followed by Dunnets' test using Graph pad prism software."}, "[1]": {"test_system": "HL-60 promyelocytic leukemia cell line", "assay": "HL-60 differentiation (NBT reduction)", "format": "cell-based", "conditions": "72 h culture", "description": "Progression of promyelocytic leukemia can be abrogated by their differentiation. […] In order to estimate the differentiating ability of compound-40, HL-60 promyelocytic leukemia cell line was used as an in vitro model of the disease. HL-60 cells were cultured for 72 h as either control or under treatment as mentioned. After 72 h of culture, cells were exposed to nitro blue tetrazolium (NBT) solution containing phorbol myristate acetate (PMA) for 1 h at 37° C. Differentiated cells have increased oxidative burst potential which reduces NBT. Levels of reduced NBT were measured at 540 nm absorption."}, "MIA PaCa-2 cells": {"test_system": "MIA PaCa-2 cells", "assay": "Caspase-3 activity (Ac-DEVD-R110 cleavage) in MIA PaCa-2 cells", "format": "cell-based", "description": "Caspase-3 activity was measured using its ability to cleave its substrate (Ac-DEVD-R110). Increased Caspase-3 activity would lead to higher release of fluorescent R110 which was measured at 485 nm excitation and 530 nm emission. Activity of caspase-3 (as nano-moles of R110 released) was normalized to total cellular protein. […] Cell death was measured by increased levels of DNA fragments as per manufacturer's protocol (Roche) and was normalized to total cellular DNA. Data are represented as % of control."}, "hRXR α, β, or γ": {"test_system": "hRXR α, β, or γ", "assay": "Transactivation assay (RARE-Luc dual luciferase reporter in HEK-293 cells), activity relative to LG268", "format": "cell-based, human", "conditions": "24 h, luciferase activity expressed relative to LG268", "in_short": "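HEK-293 cells co-transfected with hRXR α, β or γ expression vector, RARE-firefly luciferase and renilla luciferase; 24 h later treated with agonist (100 nM, 300 nM, 1 uM) for 24 h. Firefly signal normalized to renilla; activity expressed relative to the RXR agonist LG268.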"}},
  "data": [
    {"smiles": "CC1(C)CCC(C)(C)c2sc(N(CC3CC3)c3ccc(C(=O)O)cn3)nc21", "note": "[Compound 40, 6-[(Cyclopropylmethyl) (4,4,7,7-tetramethyl-4,5,6,7-tetrahydro-1,3-benzothiazol-2-yl)amino]pyridine-3-carboxylic acid]", "values": [
      {"measurement": "CRP levels", "setting": "male ZDF rats", "result": "decreasing CRP levels"},
      {"measurement": "HbAlc levels", "setting": "male ZDF rats", "result": "very significant improvement"},
      {"measurement": "activity of SDH (glucose oxidation in muscle)", "setting": "male ZDF rats", "result": "significantly increased the activity of SDH"},
      {"measurement": "fasting TG levels", "setting": "male ZDF rats", "result": "significantly reduces fasting TG levels"},
      {"measurement": "fasting glucose", "setting": "male ZDF rats", "result": "significant control of Fasting glucose"},
      {"measurement": "glucose disposal", "setting": "male ZDF rats", "result": "improves glucose disposal"},
      {"measurement": "hyperinsulinemia (insulin levels)", "setting": "male ZDF rats", "result": "significantly reduced hyperinsulinemia"},
      {"measurement": "levels of biomarkers of Cardio vascular risk", "setting": "male ZDF rats", "result": "improvement in levels of biomarkers of Cardio vascular risk"},
      {"measurement": "prandial hyperglycemia (fed glucose)", "setting": "male ZDF rats", "result": "both an early onset and sustained control of prandial hyperglycemia"},
      {"measurement": "Cardiac function", "setting": "male ZDF rats; Millar MPVS hemodynamic measurement", "result": "Substantial improvement"},
      {"measurement": "BUN levels", "setting": "male ZDF rats; end of 22 weeks", "result": "Substantial decrease"},
      {"measurement": "Serum Creatinine levels", "setting": "male ZDF rats; end of 22 weeks", "result": "Substantial decrease"},
      {"measurement": "hypertriglyceridemia", "setting": "male ZDF rats; fasting TG during treatment and there after", "result": "does not cause hypertriglyceridemia"},
      {"measurement": "Nerve conduction velocity (NCV)", "setting": "male ZDF rats; sciatic nerve", "result": "Significant improvement"},
      {"measurement": "absolute heart weight", "setting": "Male Wistar rats; isoprenaline 5 mg/kg, s.c. twice a week", "result": "substantial reduction"},
      {"measurement": "Stroke volume (SV)", "setting": "Male Wistar rats; isoprenaline", "result": "significant improvement"},
      {"measurement": "Stroke work (SW)", "setting": "Male Wistar rats; isoprenaline", "result": "significant improvement"},
      {"measurement": "cardiac output", "setting": "Male Wistar rats; isoprenaline", "result": "improved"},
      {"measurement": "ejection fraction", "setting": "Male Wistar rats; isoprenaline", "result": "improved"},
      {"measurement": "heart rate", "setting": "Male Wistar rats; isoprenaline", "result": "improved"},
      {"measurement": "thickness of the septum", "setting": "Male Wistar rats; isoprenaline", "result": "significant reduction"},
      {"measurement": "thickness of the ventricular wall", "setting": "Male Wistar rats; isoprenaline", "result": "significant reduction"},
      {"measurement": "ventricular refilling", "setting": "Male Wistar rats; isoprenaline", "result": "improvement in ventricular refilling"},
      {"measurement": "HL-60 cells differentiation", "setting": "[1]; NBT reduction at 540 nm", "result": "significantly increased"},
      {"measurement": "HL-60 differentiation in combination with ATRA", "setting": "[1]; together with ATRA", "result": "additive effect with ATRA"},
      {"measurement": "Caspase-3 activity", "setting": "MIA PaCa-2 cells", "result": "significantly increased"},
      {"measurement": "Activity at 300 nM", "setting": "hRXR α, β, or γ; compound at 300 nM", "result": "***** (>0.6)"},
      {"measurement": "Activity at 1 µM", "setting": "hRXR α, β, or γ; compound at 1 µM", "result": "**** (>0.9 to <1)"}
    ]}
  ]
}
